# In patent US9186344B2, “Glycogen or polysaccharide storage disease treatment method” (Baylor Research Institute, priority 2004, dated 2015):
# Key:
# [1] = tested on: polysaccharide storage myopathy (PSSM); experiment: Treatment of horses with polysaccharide storage myopathy with triheptanoin diet; format: in vivo, horse
# Description: Treatment of Horses. […] The first was an 8 year old mare who was unable to walk or exercise without severe muscle pain, rhabdomyolysis, and “locking up.” The owners were approaching “putting the animal down” (killing it). […] A second horse was encountered at 4 months with proven polysaccharide storage myopathy (PSSM) that was not able to walk adequately or nurse from its mother. The owners were prepared to kill the animal but decided to try the triheptanoin diet first. […] A third horse, also an 8 year old mare, developed PSSM and “locked up.” She was no longer available to ride and could no longer jump.
# [2] = tested on: Adult-Onset Glycogen Storage Disease II (Pompe's) patient; experiment: Plasma amino acids during initiation of anaplerotic therapy (C7 diet), Example 1 patient; format: in vivo, human; conditions: for Plasma ASPARTATE: normal (0-10); for Plasma CITRULLINE: normal (11-51); for Plasma ARGININE: normal (20-122); for Plasma TRYPTOPHAN: normal (23-86); for Plasma TYROSINE: normal (30-100); for Plasma PHENYLALANINE: normal (35-83); for Plasma ORNITHINE: normal (36-118); for Plasma ISOLEUCINE: normal (39-119); for Plasma LEUCINE: normal (60-204); for Plasma VALINE: normal (108-295); for Plasma ALANINE: normal (162-572); for Plasma GLUTAMINE: normal (424-720); for Plasma Total Amino Acids: normal (1540-4415)
# Description: Clinical and Biochemical Course on Therapy. […] Esophageal dysmotility was documented. A percutaneous endoscopic gastrostomy (PEG) was placed on the sixth hospital day.
# The diet was based on vivonex and ˜1500 Kcal was given by nasogastric tube, on admission. […] Total caloric intake was raised from ˜1500 to 1700 to 1900 per day with these dietary changes during […] 33 day admission.
# The levels of Alanine and Glutamine were low compared to the adult normal ranges. While the levels of the branched-chain amino acids (BCAA=Leucine, Valine, & Isoleucine) were within the adult normal ranges. The reduced levels of Alanine and Glutamine have been observed often in this disease and has led to the high protein—low carbohydrate diet and/or alanine supplementation. […] Glutamine increased nearly 2-fold as did the branched chain amino acids (BCAAs). The levels of these amino acids remained in the normal range while receiving the C7 diet. However, the diet was interrupted on day 4 & 5 while awaiting placement of the PEG for gastrostomy feeding. The levels of each of these amino acids promptly fell to admission levels (Table 2: 65 & 84 hour samples). With resumption of the diet via gastrostomy, all levels returned to (or above) the normal ranges in 24 hours. These amino acid levels remained normal on this odd-carbon triglyceride diet therapy.
# GSDII patient = experiment: Clinical course on triheptanoin diet, Example 2 patient; format: in vivo, human
# Description: Clinical Course. Following informed consent, the patient agreed to enter an approved IRB Protocol for dietary therapy with triheptanoin oil. […] Maximal inspiratory and expiratory pressures were 60 cm of water. […] And pO2=62.
# The oral diet consisted of 2900 Kcal on admission. […] Total caloric intake was maintained at ˜2800 per day during his 30 day admission.
# Initially, the patient required assistance and supervision with grooming, upper and lower extremity dressing, bathing, and toileting. The patient also required maximal assistance with ambulation and transfers from bed to wheelchair. […] They continued to require supervision, but without assistance, with transfers from bed to wheelchair and to toilet and shower. They had clearly made improvements in strength and endurance with exercise.
# [3] = thirteen hours after initiating the C7 diet
smiles,measurement,setting,value
"CCCCCCC(=O)OCC(COC(=O)CCCCCC)OC(=O)CCCCCC [C7, triheptanoin]",time to become asymptomatic,"[1]; first horse, 8 year old mare, triheptanoin in feed pellets",≤ 30 days
same,blood enzyme levels related to muscle disease (including serum creatine phosphokinase),"[1]; second horse, 4 month foal",had normalized
same,time to running and playing without muscle pain,"[1]; second horse, 4 month foal",≤ 24 h
same,symptoms after adjustment of the dose for weight gain,"[1]; second horse, dose back to 2 grams/Kg body weight",eliminated all symptoms
same,clinical status,"[1]; third horse, 8 year old mare, 1.0 gm/Kg/day, one week of diet treatment",asymptomatic with normal blood chemistry levels
same,Plasma ASPARTATE,"[2]; 13 hrs, C7 = 1.0 gm/Kg",44 µM
same,Plasma CITRULLINE,"[2]; 13 hrs, C7 = 1.0 gm/Kg",1 µM
same,Plasma ARGININE,"[2]; 13 hrs, C7 = 1.0 gm/Kg",96 µM
same,Plasma TRYPTOPHAN,"[2]; 13 hrs, C7 = 1.0 gm/Kg",121 µM
same,Plasma TYROSINE,"[2]; 13 hrs, C7 = 1.0 gm/Kg",110 µM
same,Plasma PHENYLALANINE,"[2]; 13 hrs, C7 = 1.0 gm/Kg",101 µM
same,Plasma ORNITHINE,"[2]; 13 hrs, C7 = 1.0 gm/Kg",78 µM
same,Plasma ISOLEUCINE,"[2]; 13 hrs, C7 = 1.0 gm/Kg",81 uM/L
same,Plasma LEUCINE,"[2]; 13 hrs, C7 = 1.0 gm/Kg",154 uM/L
same,Plasma VALINE,"[2]; 13 hrs, C7 = 1.0 gm/Kg",333 uM/L
same,Plasma ALANINE,"[2]; 13 hrs, C7 = 1.0 gm/Kg",551 uM/L
same,Plasma GLUTAMINE,"[2]; 13 hrs, C7 = 1.0 gm/Kg",827 uM/L
same,Plasma Total Amino Acids,"[2]; 13 hrs, C7 = 1.0 gm/Kg",3673 µM
same,Plasma ASPARTATE,"[2]; 41 hrs, C7 = 1.0 gm/Kg",112 µM
same,Plasma CITRULLINE,"[2]; 41 hrs, C7 = 1.0 gm/Kg",43 µM
same,Plasma ARGININE,"[2]; 41 hrs, C7 = 1.0 gm/Kg",93 µM
same,Plasma TRYPTOPHAN,"[2]; 41 hrs, C7 = 1.0 gm/Kg",43 µM
same,Plasma TYROSINE,"[2]; 41 hrs, C7 = 1.0 gm/Kg",62 µM
same,Plasma PHENYLALANINE,"[2]; 41 hrs, C7 = 1.0 gm/Kg",156 µM
same,Plasma ORNITHINE,"[2]; 41 hrs, C7 = 1.0 gm/Kg",163 µM
same,Plasma ISOLEUCINE,"[2]; 41 hrs, C7 = 1.0 gm/Kg",138 uM/L
same,Plasma LEUCINE,"[2]; 41 hrs, C7 = 1.0 gm/Kg",266 uM/L
same,Plasma VALINE,"[2]; 41 hrs, C7 = 1.0 gm/Kg",384 uM/L
same,Plasma ALANINE,"[2]; 41 hrs, C7 = 1.0 gm/Kg",450 uM/L
same,Plasma GLUTAMINE,"[2]; 41 hrs, C7 = 1.0 gm/Kg",424 uM/L
same,Plasma Total Amino Acids,"[2]; 41 hrs, C7 = 1.0 gm/Kg",4160 µM
same,Plasma ASPARTATE,"[2]; 108 hrs, C7 = 1.5 gm/Kg",50 µM
same,Plasma CITRULLINE,"[2]; 108 hrs, C7 = 1.5 gm/Kg",35 µM
same,Plasma ARGININE,"[2]; 108 hrs, C7 = 1.5 gm/Kg",102 µM
same,Plasma TRYPTOPHAN,"[2]; 108 hrs, C7 = 1.5 gm/Kg",40 µM
same,Plasma TYROSINE,"[2]; 108 hrs, C7 = 1.5 gm/Kg",56 µM
same,Plasma PHENYLALANINE,"[2]; 108 hrs, C7 = 1.5 gm/Kg",90 µM
same,Plasma ORNITHINE,"[2]; 108 hrs, C7 = 1.5 gm/Kg",122 µM
same,Plasma ISOLEUCINE,"[2]; 108 hrs, C7 = 1.5 gm/Kg",144 uM/L
same,Plasma LEUCINE,"[2]; 108 hrs, C7 = 1.5 gm/Kg",238 uM/L
same,Plasma VALINE,"[2]; 108 hrs, C7 = 1.5 gm/Kg",304 uM/L
same,Plasma ALANINE,"[2]; 108 hrs, C7 = 1.5 gm/Kg",307 uM/L
same,Plasma GLUTAMINE,"[2]; 108 hrs, C7 = 1.5 gm/Kg",584 uM/L
same,Plasma Total Amino Acids,"[2]; 108 hrs, C7 = 1.5 gm/Kg",3568 µM
same,Plasma ASPARTATE,"[2]; 132 hrs, C7 = 1.5 gm/Kg",42 µM
same,Plasma CITRULLINE,"[2]; 132 hrs, C7 = 1.5 gm/Kg",25 µM
same,Plasma ARGININE,"[2]; 132 hrs, C7 = 1.5 gm/Kg",97 µM
same,Plasma TRYPTOPHAN,"[2]; 132 hrs, C7 = 1.5 gm/Kg",40 µM
same,Plasma TYROSINE,"[2]; 132 hrs, C7 = 1.5 gm/Kg",46 µM
same,Plasma PHENYLALANINE,"[2]; 132 hrs, C7 = 1.5 gm/Kg",84 µM
same,Plasma ORNITHINE,"[2]; 132 hrs, C7 = 1.5 gm/Kg",95 µM
same,Plasma ISOLEUCINE,"[2]; 132 hrs, C7 = 1.5 gm/Kg",128 uM/L
same,Plasma LEUCINE,"[2]; 132 hrs, C7 = 1.5 gm/Kg",220 uM/L
same,Plasma VALINE,"[2]; 132 hrs, C7 = 1.5 gm/Kg",269 uM/L
same,Plasma ALANINE,"[2]; 132 hrs, C7 = 1.5 gm/Kg",277 uM/L
same,Plasma GLUTAMINE,"[2]; 132 hrs, C7 = 1.5 gm/Kg",519 uM/L
same,Plasma Total Amino Acids,"[2]; 132 hrs, C7 = 1.5 gm/Kg",3296 µM
same,time to restoration of Alanine and Glutamine deficits,"[2]; FIG. 5, Triheptanoin diet only",≤ 13 h
same,time for amino acid levels to return to (or above) normal ranges,[2]; after resumption of the diet via gastrostomy,≤ 24 h
same,increase of plasma Glutamine,[2]; [3],~2 fold
same,increase of plasma branched chain amino acids (BCAAs),[2]; [3],~2 fold
same,increase of plasma alanine level,[2]; thirteen hours after initiating the C7 diet by nasogastric tube,4 fold
same,increase in total vital capacity,"GSDII patient; at discharge compared to admission, diet plus physical therapy",700 mL
same,functional status at discharge,"GSDII patient; intensive physical therapy and diet, 30 day admission","independent with grooming, upper and lower extremity dressing, toileting, and locomotion with a manual wheelchair"
